Measurements: patent US10596168B2, “Antagonists of the thyroid-stimulating hormone receptor (TSHR)” (Forschungsverbund Berlin e.V., priority 2016, dated 2020)
Where “and” joins values, the source holds several entries; their conditions need not be identical. Identical values can stand only once. Blank lines part the entries; values can stand above or below the molecule they belong to.

Columns and labels:
Type in all cases: cell-based
TSHR [1] = molecular target: T1, TSHR (Homo sapiens, UniProt P16473); assay: cAMP accumulation radioimmunoassay (RIA), inhibition of TSH-induced cAMP production in HEK-293 cells stably expressing TSHR; parameters: antagonistic activity (% inhibition): concentration or dose not given beside the values; details: for Antagonistic effect (cAMP inhibition) on TSHR: 50 μM together with the respective agonist, RIA, HEK-293; for Mode of antagonism vs. TSH (Schild analysis): bTSH dose response with increasing antagonist concentrations, wt TSHR; for antagonistic activity (% inhibition): inhibiting cAMP stimulation by TSH, radioimmunoassay; for IC50: secondary screen (RIA), dose-dependent inhibition of cAMP production caused by TSH (EC80 value), HEK-293-TSHR
T1 construct: expressed in transfected cells
Procedure: (§1) HEK-293 cells stably expressing TSHR, FSHR, LHGCR or CRF1R were cultured for 48 h and stimulated for 1 h at 37° C. with stimulation buffer (DMEM supplemented with 10 mM HEPES, 0.5% BSA, 0.25 mM 3-isobutyl-1-methylxanthine) containing the ligands as indicated. After stimulation medium was aspirated and reactions were stopped by lysis of the cells with 0.1% trifluoroacetic acid, 0.005% Triton X-100 for 30 min at 4° C. Supernatants were collected and heated at 95° C. for 10 min, dried in a rotation vacuum concentrator (Alpha-RCV, Christ) and finally stored at −20° C. until use. After reconstitution and acetylation of the samples (Jäschke et al. 2006), the cAMP content was determined using cAMP-^125I-tyrosyl methyl ester (10,000 cpm, IBL) and polyclonal rabbit anti cAMP antibodies. The radioactivity of the precipitate was determined in a γ-counter.
For the Secondary Screening cAMP accumulation was measured by radioimmunoassay (RIA) in HEK-293-TSHR cells as described before.
For the secondary screening we used a very sensitive in vitro technique, the radioimmunoassay. This assay was established and performed in HEK-293 cell line stably expressing TSHR.
Therefore RIA was used to measure the cAMP accumulation upon stimulation with TSH (EC80 value) and confirmed the desired effect for S4 and S9 with a clear decrease of cAMP production.

wt TSHR = molecular target: T2, wt TSHR (Homo sapiens, UniProt P16473); assay: cAMP stimulation by agonist compound C2 at wildtype TSHR with increasing antagonist concentrations; details: C2 dose response with increasing antagonist concentrations
T2 construct: expressed in transfected cells
Procedure: as §1
Moreover, a Schild plot analysis provided first interesting hints that S37 might compete with the binding site of TSH, since increasing concentrations of added S37 led to a right shift of the TSH dose response curve (FIG. 5A) and to a linear Schild plot (FIG. 5B). S37 seems not to compete with the transmembrane binding site of the previous reported agonist compound 2 (Neumann et al. 2009), since increasing concentrations of added S37 led to diminished maximal values of the dose response curve for compound 2 by unchanged EC50 value (FIG. 5C).

Δ1-408-TSHR = molecular target: T3, Δ1-408-TSHR (Homo sapiens, UniProt P16473); assay: cAMP radioimmunoassay at ectodomain-truncated TSHR construct stimulated by compound 2; details: Δ1-408-TSHR lacking the ectodomain
T3 construct: This short construct (Δ1-408-TSHR.GFP) only consists of the transmembrane region; expressed in transfected cells
Excerpt: Ectodomain-truncated TSHR construct (Δ1-408-TSHR.GFP) was generated using quick change site-directed mutagenesis and restriction digestion to excise the desired fragment of the TSHR sequence. The DNA sequence encoding the truncated TSHR mutant was inserted into the GFP-N1 vector. The construct was fused C-terminally with GFP and N-terminally with a FLAG tag. The FLAG tag was inserted by overlap-extension PCR. A HEK-293 cell line stably expressing this construct was generated. Shortly, cells were transfected with Polyethylenimine and plasmid DNA in a 2:1 ratio in serum free medium (DMEM). Cells were selected with medium containing 400 μg/ml G418 for several weeks and then a polyclonal population was selected for GFP fluorescence in a cell sorting device (BD FACSAria II flow cytometer). Cell surface expression was confirmed by confocal laser-scanning microscopy (GFP fluorescence) and flow cytometry using anti-FLAG M2 (Sigma).
HEK-293 cells stably expressing TSHR, FSHR, LHGCR or CRF1R were cultured for 48 h and stimulated for 1 h at 37° C. with stimulation buffer (DMEM supplemented with 10 mM HEPES, 0.5% BSA, 0.25 mM 3-isobutyl-1-methylxanthine) containing the ligands as indicated. […] After reconstitution and acetylation of the samples (Jäschke et al. 2006), the cAMP content was determined using cAMP-^125I-tyrosyl methyl ester (10,000 cpm, IBL) and polyclonal rabbit anti cAMP antibodies. […]

[2] = system: Hek293 cell line stably expressing TSHR; assay: Toxicity test, alamar blue cell vitality; details: 10 μM-100 μM
Procedure: The vitality of the cells was measured by the alamar blue test using Hek293 cell line stably expressing TSHR. Untreated cells and DMSO-treated cells (0.2% DMSO) were used as control.
Therefore, we conclude that substance S37 is not toxic for the concentration range evaluated by this assay.

FSHR = molecular target: T4, FSHR (Homo sapiens, UniProt P23945); assay: Selectivity test: cAMP RIA in HEK-293 cells stably expressing FSHR; details: 50 μM together with the respective agonist
T4 construct: expressed in transfected cells
T4 sequence (P23945 18-695): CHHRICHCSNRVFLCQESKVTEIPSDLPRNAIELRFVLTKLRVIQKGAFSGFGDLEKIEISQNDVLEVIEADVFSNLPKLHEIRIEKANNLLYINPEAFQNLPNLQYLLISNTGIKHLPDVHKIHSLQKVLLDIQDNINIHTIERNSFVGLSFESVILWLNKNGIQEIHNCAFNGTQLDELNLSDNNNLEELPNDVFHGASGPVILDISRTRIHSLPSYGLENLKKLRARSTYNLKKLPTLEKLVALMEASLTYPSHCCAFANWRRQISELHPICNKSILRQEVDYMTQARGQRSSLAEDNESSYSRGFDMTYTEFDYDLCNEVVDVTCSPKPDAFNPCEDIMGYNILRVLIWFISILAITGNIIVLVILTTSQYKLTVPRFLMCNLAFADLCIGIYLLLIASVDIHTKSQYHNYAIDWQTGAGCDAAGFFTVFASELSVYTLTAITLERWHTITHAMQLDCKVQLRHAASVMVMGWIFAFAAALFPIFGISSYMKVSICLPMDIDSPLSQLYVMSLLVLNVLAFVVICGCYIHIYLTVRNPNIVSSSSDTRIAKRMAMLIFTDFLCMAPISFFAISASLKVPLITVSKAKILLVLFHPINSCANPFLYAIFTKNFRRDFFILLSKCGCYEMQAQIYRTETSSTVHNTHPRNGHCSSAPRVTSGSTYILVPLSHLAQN
Procedure: as §1
(§2) The antagonistic activity of compounds S4, S9, S37 and as reference compound, the micromolar inverse agonist 2-7 (Neumann et al. 2010) were tested on homologous members of the glycoprotein hormone receptor family, FSHR and LHCGR. […] All receptors were stably expressed in HEK-293 cells and the impact of each substance was measured upon administration of 50 μM together with the respective agonist. cAMP accumulation was quantified by RIA. The antagonistic potential of each compound was calculated. […]

TSHR [3] = molecular target: T1, TSHR; assay: Primary screening, Enzyme Fragment Complementation (EFC) cAMP assay in CHO-K1-TSHR cells; details: 50 μM; after hit validation and exclusion of false positives
Procedure: Primary screening was performed using an Enzyme Fragment Complementation (EFC) technology. CHO-K1-TSHR cells (15000/well in a 384 well plate) were treated with 50 μM of each of the 16544 compounds of the ChemBioNet compound library of the Leibniz-Institut fuer Molekulare Pharmakologie (FMP), Berlin, Germany. EFC technology uses two fragments of one enzyme: an enzyme acceptor (EA) and an enzyme donor (ED). ED is labeled to (synthetic) cAMP. […] In this assay, free cAMP from cell lysates and ED-labeled cAMP compete for antibody binding sites. Unbound ED-cAMP is free to complement EA to form active enzyme, which subsequently produces a luminescent signal. Thus the luminescence signal increases with rising level of intracellular cAMP. All assay components were used after the manufacturer's protocol.
Hits were validated by dose-response curves using the EFC assay.
False-positive hits could be excluded by stimulating CHO-K1 cells without TSHR with Forskolin (23.4 μM) followed by addition of the compound of interest. Forskolin activates the Adenylyl-cyclase directly. Inhibition of this effect excludes the interaction between TSHR and compound.
For the implementation of the primary screen the Enzymes Fragment Complementation Technology (EFC) was selected.

LHCGR = molecular target: T5, LHCGR (Homo sapiens, UniProt P22888); assay: Selectivity test: cAMP RIA in HEK-293 cells stably expressing LHCGR; details: 50 μM together with the respective agonist
T5 construct: expressed in transfected cells
Procedure: as §1, §2

T1 sequence (P16473 21-764): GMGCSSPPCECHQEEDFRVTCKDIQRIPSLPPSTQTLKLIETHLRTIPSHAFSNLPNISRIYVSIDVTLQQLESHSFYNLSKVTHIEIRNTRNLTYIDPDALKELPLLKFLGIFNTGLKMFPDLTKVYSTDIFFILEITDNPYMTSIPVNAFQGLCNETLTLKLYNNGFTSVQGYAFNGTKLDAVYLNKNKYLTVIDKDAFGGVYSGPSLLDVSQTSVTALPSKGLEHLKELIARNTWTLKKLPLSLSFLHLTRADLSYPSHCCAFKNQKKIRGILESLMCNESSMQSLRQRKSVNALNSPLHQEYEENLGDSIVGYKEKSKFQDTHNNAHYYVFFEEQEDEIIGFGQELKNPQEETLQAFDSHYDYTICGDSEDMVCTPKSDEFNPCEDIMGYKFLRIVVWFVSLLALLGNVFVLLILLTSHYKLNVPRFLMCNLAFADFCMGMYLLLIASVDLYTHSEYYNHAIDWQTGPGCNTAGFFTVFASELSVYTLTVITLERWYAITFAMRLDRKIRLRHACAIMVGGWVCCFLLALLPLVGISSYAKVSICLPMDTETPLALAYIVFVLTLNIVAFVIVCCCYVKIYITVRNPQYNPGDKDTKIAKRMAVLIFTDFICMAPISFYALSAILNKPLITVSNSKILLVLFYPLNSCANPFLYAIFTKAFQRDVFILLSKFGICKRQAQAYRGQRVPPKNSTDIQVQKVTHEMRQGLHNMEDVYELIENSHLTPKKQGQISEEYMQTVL
T2 sequence (P16473 21-764): as above
T5 sequence (P22888 27-699, species assumed): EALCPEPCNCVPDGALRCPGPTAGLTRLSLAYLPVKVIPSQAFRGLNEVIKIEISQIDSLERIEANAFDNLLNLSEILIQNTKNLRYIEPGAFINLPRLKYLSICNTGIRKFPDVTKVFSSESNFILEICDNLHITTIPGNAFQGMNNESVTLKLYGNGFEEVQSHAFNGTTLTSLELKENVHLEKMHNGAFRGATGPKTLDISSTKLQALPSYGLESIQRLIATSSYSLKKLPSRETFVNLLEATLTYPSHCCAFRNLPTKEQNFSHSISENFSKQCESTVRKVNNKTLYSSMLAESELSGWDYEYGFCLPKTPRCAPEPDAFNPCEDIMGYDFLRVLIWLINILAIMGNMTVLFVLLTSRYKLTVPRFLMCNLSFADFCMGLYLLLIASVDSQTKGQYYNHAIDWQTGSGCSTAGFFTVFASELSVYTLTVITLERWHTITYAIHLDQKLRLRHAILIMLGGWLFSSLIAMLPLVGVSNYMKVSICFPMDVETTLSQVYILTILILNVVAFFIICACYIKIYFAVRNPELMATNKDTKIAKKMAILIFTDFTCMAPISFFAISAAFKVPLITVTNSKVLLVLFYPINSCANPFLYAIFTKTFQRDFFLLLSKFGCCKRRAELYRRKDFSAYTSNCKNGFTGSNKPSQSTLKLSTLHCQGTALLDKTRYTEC
T3 sequence (P16473 409-764, stated change not applied): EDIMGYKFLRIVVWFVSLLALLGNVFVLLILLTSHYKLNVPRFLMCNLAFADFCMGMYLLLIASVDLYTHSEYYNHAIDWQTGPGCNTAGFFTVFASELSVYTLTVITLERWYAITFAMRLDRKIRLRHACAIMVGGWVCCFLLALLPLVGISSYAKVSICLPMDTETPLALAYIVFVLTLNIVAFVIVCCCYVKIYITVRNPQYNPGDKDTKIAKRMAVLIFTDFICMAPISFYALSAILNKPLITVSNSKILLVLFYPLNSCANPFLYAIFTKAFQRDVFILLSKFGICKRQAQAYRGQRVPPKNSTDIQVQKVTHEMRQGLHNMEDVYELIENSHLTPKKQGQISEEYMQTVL

Mode of antagonism vs. TSH (Schild analysis) (TSHR [1]): competitive antagonism | TSHR selectivity versus homologous receptors LHCGR and FSHR (TSHR [1]; from cAMP inhibition at TSHR, FSHR, LHCGR at 50 μM): highly TSHR-selective | antagonistic activity (% inhibition) (TSHR [1]): 70% | IC50 (TSHR [1]): 28 µM | Mode of antagonism vs. C2 (wt TSHR): non-competitive antagonism | Mode of antagonism vs. C2 at truncated construct (Δ1-408-TSHR): non-competitive antagonism
SMILES: O=C1[C@@H]2[C@H]3C[C@H]([C@@H]4Sc5[nH]c(=O)sc5[C@@H](c5ccccc5)[C@H]34)[C@@H]2C(=O)N1c1ccccc1 (racemic) [Compound S37, (4aS,5S,5aR,8aR,9R,9aS,10R)-7,10-diphenyl-3,4a,5,5a,8a,9,9a,10-octahydro-5,9-methanothiazolo[5′,4′:5,6]thiopyrano[2,3-f]isoindole-2,6,8(7H)-trione]
Antagonistic effect (cAMP inhibition) on TSHR (TSHR [1]): inhibits TSHR comparable to the reference compound 2-7(NIH) | Toxicity (cell vitality, alamar blue) [2]: not toxic

antagonistic activity (% inhibition) (TSHR [1]): 34%
SMILES: O=C1[C@@H]2[C@H]3C[C@H]([C@@H]4Sc5[nH]c(=O)sc5[C@@H](c5cccc(O)c5)[C@H]34)[C@@H]2C(=O)N1c1ccccc1 (racemic) [Compound S125, (4aR,5R,5aS,8aS,9S,9aR,10S)-10-(3-hydroxyphenyl)-7-phenyl-3,4a,5,5a,8a,9,9a,10-octahydro-5,9-methanothiazolo[5′,4′:5,6]thiopyrano[2,3-f]isoindole-2,6,8(7H)-trione compound with (4aS,5S,5aR,8aR,9R,9aS,10R)-10-(3-hydroxyphenyl)-7-phenyl-3,4a,5,5a,8a,9,9a,10-octahydro-5,9-methanothiazolo[5′,4′:5,6]thiopyrano[2,3-f]isoindole-2,6,8(7H)-trione (1:1)]

Antagonistic effect (cAMP inhibition) on TSHR (TSHR [1]): inhibits TSHR and FSHR activation | antagonistic activity (% inhibition) (TSHR [1]): 63% | IC50 (TSHR [1]): 48.9 µM and 49 µM | Antagonistic effect (cAMP inhibition) on FSHR (FSHR): inhibits TSHR and FSHR activation | Primary screen hit: cAMP production induced by thyrotropin (TSHR [3]): potentially abolishing cAMP production
SMILES: Cc1ccc(N2C(=O)C3C4CC(C3C2=O)C2C(c3ccccc3)c3sc(=O)[nH]c3SC42)cc1 (centres unmarked) [Compound S4]

Mode of antagonism vs. TSH (Schild analysis) (TSHR [1]): non-competitive antagonism | antagonistic activity (% inhibition) (TSHR [1]): 75% | IC50 (TSHR [1]): 18.7 µM and 18.6 µM | Mode of antagonism vs. C2 (wt TSHR): non-competitive antagonism | Primary screen hit: cAMP production induced by thyrotropin (TSHR [3]): potentially abolishing cAMP production
SMILES: O=C1C2C3C=CC(C3)C2C(=O)N1c1ccc(N2CCN(c3cccc(C(F)(F)F)c3)CC2)c([N+](=O)[O-])c1 (centres unmarked) [Compound S9]
Antagonistic effect (cAMP inhibition) on TSHR (TSHR [1]): unspecifically inhibits all three receptors | Antagonistic effect (cAMP inhibition) on FSHR (FSHR): unspecifically inhibits all three receptors | Antagonistic effect (cAMP inhibition) on LHCGR (LHCGR): unspecifically inhibits all three receptors

antagonistic activity (% inhibition) (TSHR [1]): 30%
SMILES: Cc1ccc(N2C(=O)C3C4CC(C3C2=O)C2C(c3ccc(N(C)C)cc3)c3sc(=O)[nH]c3SC42)cc1 (centres unmarked) [Compound S18]

antagonistic activity (% inhibition) (TSHR [1]): 50%
SMILES: O=C1C2C3CC(C2C(=O)N1c1ccccc1)C1C(c2ccc(O)cc2)c2sc(=O)[nH]c2SC31 (centres unmarked) [Compound S19]

antagonistic activity (% inhibition) (TSHR [1]): 55%
SMILES: O=C1C2C3CC(C2C(=O)N1c1cccc(C(F)(F)F)c1)C1C(c2ccccc2)c2sc(=O)[nH]c2SC31 (centres unmarked) [Compound S21]

antagonistic activity (% inhibition) (TSHR [1]): 35%
SMILES: O=C1C2C3C=CC(C3)C2C(=O)N1c1ccc(N2CCOCC2)c([N+](=O)[O-])c1 (centres unmarked) [Compound S26]

antagonistic activity (% inhibition) (TSHR [1]): 30%
SMILES: CCOC(=O)N1CCN(c2ncc(N3C(=O)C4C(C3=O)[C@H]3C=C[C@@H]4C3)cc2[N+](=O)[O-])CC1 (some centres unmarked) [Compound S34]

antagonistic activity (% inhibition) (TSHR [1]): 15%
SMILES: CCOC(=O)N1CCN(c2ncc(N3C(=O)[C@@H]4[C@H](C3=O)[C@H]3C=C[C@@H]4C3)cc2[N+](=O)[O-])CC1 [Compound S35]

antagonistic activity (% inhibition) (TSHR [1]): 40%
SMILES: CN1CCN(c2ccc(N3C(=O)[C@@H]4[C@H]5C[C@H]([C@@H]6Sc7[nH]c(=O)sc7[C@@H](c7ccccc7)[C@H]56)[C@@H]4C3=O)cc2[N+](=O)[O-])CC1 [Compound S38, (4aS,5S,5aR,8aR,9R,9aS,10R)-7-(4-(4-methylpiperazin-1-yl)-3-nitrophenyl)-10-phenyl-3,4a,5,5a,8a,9,9a,10-octahydro-5,9-methanothiazolo[5′,4′:5,6]thiopyrano[2,3-f]isoindole-2,6,8(7H)-trione]
